System: advanced colorectal cancer (CRC)
Experiment: Survival of advanced colorectal cancer patients treated with temozolomide, stratified by tumor MGMT protein level (SRM mass spectrometry)
Assay type: in vivo
Settings: for median progression-free survival (PFS): treated with temozolomide
From the text: 24 patients from Fondazione IRCCS Istituto Nazionale dei TumoriVia Venezian, Milan, Italy, were identified with advanced colorectal cancer (CRC). Tumors were surgically removed prior to treatment and archived as formalin-fixed, paraffin-embedded (FFPE) tissue and all were histologically colorectal cancer. All 24 patients were subsequently treated with temozolomide.
Archived formalin-fixed, paraffin-embedded tissue sections were obtained from patients with advanced CRC treated with temozolomide (n=24). A board-certified pathologist marked the tumor areas. Based on the markups, tumor cells were laser microdissected and solubilized to tryptic peptides using the Liquid Tissue process. In each liquefied sample, multiple protein biomarkers including MGMT were quantified by selected reaction monitoring (SRM) mass spectrometry (MS). A mixture of stable isotope-labeled heavy peptides including the MGMT fragment peptide TTLDSPLGK was added prior to MS analysis. Each sample was analyzed in triplicate. […] The Mantel-Cox log-rank and Gehan-Breslow-Wilcoxon tests were used for survival comparisons.

Q: How did the “median progression-free survival (PFS)” value (CRC patients with MGMT levels above cutoff of 200 amol/μg) turn out when `Cn1nnc2c(C(N)=O)ncn2c1=O` [temozolomide] was run?
A: Its value is 1.6 months.

Q: What about the “median progression-free survival (PFS)” value (CRC patients with MGMT protein levels below cutoff of 200 amol/μg (n=11), p=0.0611 vs above cutoff) of the same compound?
A: Its value is 4.3 months.

Q: And the “ratio of median progression-free survival, MGMT below cutoff vs above cutoff” value (cutoff 200 amol/μg, temozolomide-treated CRC patients)?
A: The value was “approximately 2.5 times”.
